This note sets out measurements from article PMC10744608, “Simplified Synthesis of Renieramycin T Derivatives to Target Cancer Stem Cells via β-Catenin Proteasomal Degradation in Human Lung Cancer” (Marine Drugs, 2023).

Type in all cases: cell-based, human
Assay [1] has as its system A549 cells. Kind of assay: Colony formation assay. The conditions noted are these: A549, 25 nM, 24 h treatment then 7 days growth. Here is the method:
(§1) A clonogenic or colony formation assay was utilized to explore the capability of cancer cells to proliferate from single cells and form tumor colonies in response to DH_32 treatment. A single-cell suspension of NSCLC cells (A549, H23, and H292) was seeded at a density of 250 cells per well in a 6-well plate and permitted to adhere for 12 h. The cells were treated to different concentrations of DH_32 (0, 25, 50, and 100 nM) for a duration of 24 h. Subsequently, the medium containing the drug was aspirated, and fresh complete medium was introduced. The colonies were cultured for a period of 7 days, with the medium being renewed every 2 days. The colonies were washed with PBS, followed by fixation using a solution of methanol and acetic acid (3:1 v/v) for 5 min. Subsequently, they were stained with crystal violet (0.05% w/v in 4% paraformaldehyde) for 30 min. The excess crystal violet stain was washed away with distilled water until a clear background was obtained, and the samples were left to air-dry at room temperature. The colonies were photographed, and the captured images were analyzed using ImageJ software to determine the count of stained colonies. In this experiment, RT served as the positive control.

In a further assay the test system is H292 cells. Kind of assay: Colony formation assay. The conditions noted are these: H292, 25 nM, 24 h treatment then 7 days growth. How it is done:
as §1

Another assay has as its system H23 cells. Kind of assay: Colony formation assay. The conditions noted are these: H23, 25 nM, 24 h treatment then 7 days growth. How it is done: as §1
Assay [2] deals with β-catenin in A549, H23, and H292 cells. Kind of assay: Western blot of β-catenin. The conditions noted are these: 0–100 nM, 24 h. Here is the method:
(§2) The protein expression levels in NSCLC cells were assessed through Western blot analysis. A549, H23, and H292 cells were seeded at a density of 4 × 10^5 cells per well in 6-well cell culture plates. These cells were subjected to treatments with DH_32 at concentrations of 0, 25, 50, and 100 nM for 24 h at 37 °C.
(§3) Following treatment, the cells were collected using cold PBS and incubated on ice with a lysis buffer. The lysis buffer contained 50 mM 4-(2-hydroxyethyl)-1-piperazineethanesulfonic acid (pH 7.5), 150 mM NaCl, 5 mM EDTA, 1% Triton X-100, 1 mM phenylmethylsufonyl fluoride, and 2 μg/mL pepstatin A (cat no: 9803, Cell Signaling), along with complete protease inhibitor cocktail tablets provided in EASYpack (Roche, cat no: 04693116001). The incubation occurred for 40 min on ice, followed by centrifugation at 12,000× g at 4 °C for 15 min. Cell lysates were collected, and the protein content was quantified using the bicinchoninic acid (BCA) protein kit from Thermo-Fisher Scientific, Rockford, IL, USA. […] A chemiluminescent substrate (Supersignal West Pico; Pierce, Rockford, IL, USA) was applied to detect complex reactivity, and the signal intensity was quantified through densitometry. Protein intensity was analyzed by using ImageJ software (Image J 1.52a, Rasband, W., National Institutes of Health, Bethesda, MD, USA). […]

Assay [3] deals with A549, H23, and H292 cells. The assay can be described thus: Western blot of CSC markers. The conditions noted are these: 25, 50, and 100 nM, 24 h. How it is done:
as §2, §3

For assay [4], the system named is A549 cells. The assay can be described thus: RT-qPCR of stemness transcription factors. To be noted: A549, 50 nM, 6 h, normalized to GAPDH. Here is the method: RNA extraction was performed on DH_32-treated cells (3 × 10^5 cells per well in 6-well plates) using GENEzol as the reagent. Total RNA was used to synthesize cDNA through the application of SuperScript III reverse transcriptase from Invitrogen. Following cDNA synthesis, 100 ng of the cDNA was utilized for RT-qPCR, employing Luna Universal qPCR Master Mix from NEB, UK, in a final volume of 20 µL. The reaction mixture was conducted using the CFX 96 real-time PCR system from Bio-Rad, located in Hercules, CA. For the RT-qPCR, the protocol included an initial denaturation step at 95 °C for 1 min, followed by 45 cycles involving denaturation at 95 °C for 10 s, annealing and extension at 60 °C for 30 s. Melting curve analysis was employed to assess the specificity of the primers. The targeted primer genes were: The gene expression levels were normalized using the GAPDH gene as an internal control. The relative mRNA gene expression level for each gene was determined based on the comparative Cq values. RT acted as the positive control for this experiment.

For assay [5], the system named is β-catenin in A549, H292, and H23 cells. Kind of assay: Immunofluorescence of β-catenin. The conditions noted are these: 24 h; DH_32 0–100 nM, RT 25 nM. How it is done: A549, H23, and H292 NSCLC cells were seeded at a concentration of 1 × 10^4 cells per well in 96-well plates. The cells were exposed to different concentrations of DH_32 (0, 25, 50, and 100 nM) for 24 h, after which the medium was removed. Following that, the cells were subjected to fixation with 4% paraformaldehyde for 15 min. The cells were permeabilization with 0.5% Triton-X for 5 min, followed by the blocking of non-specific proteins with 10% FBS in 0.1% Triton-X PBS for 1 h at room temperature. The cells were exposed to a 1:400 dilution of primary antibodies (CD133, CD44, ALDH1A1, OCT4, NANOG, SOX2, and β-catenin) and incubated at 4 °C overnight. On the subsequent day, the cells were treated with a 1:500 dilution of the following secondary antibodies: Alexa Fluor 594-conjugated goat anti-rabbit IgG (H+L) (Invitrogen) and Alexa Fluor 488-conjugated goat anti-mouse IgG (H+L) (Invitrogen). Simultaneously, the localization of nuclei was stained with Hoechst 33342 for 1 h at room temperature. The cells were rinsed with PBS and then covered with 50% glycerol. The images were captured by a fluorescence microscope (Olympus IX 51 with DP70; Olympus America Inc., Center valley, PA, USA). The fluorescence intensity was measured by Image J software. RT acted as the positive control for this experiment.

On to `COC1=C(C)C(=O)C2=C(C1=O)[C@@H]1CN(Cc3ccc4ccccc4c3)[C@@H](C#N)[C@H](C2)N1C` [DH_32, (1R,4R,5S)-9-methoxy-8,11-dimethyl-3-(naphthalen-2-ylmethyl)-7,10-dioxo-1,2,3,4,5,6,7,10-octahydro-1,5-epiminobenzo[d]azocine-4-carbonitrile], for which the inhibition at 0.025 µM with A549 cells [1] (Homo sapiens, read-out: colony formation inhibition rate) turned out to be 90.83 ± 0.1%. For the same compound, the inhibition at 0.025 µM in the assay with H292 cells (Homo sapiens, NCI-H292, read-out: colony formation inhibition rate) turned out to be 79.74 ± 0.14%. In the assay with H23 cells (Homo sapiens, NCI-H23, read-out: colony formation inhibition rate), the inhibition at 0.025 µM came to 78.49 ± 0.08%. Besides, the “β-catenin protein level by Western blot” value in assay [2] is “significant decrease in the β-catenin protein level”. For the same compound, in assay [3], the “CSC markers CD133, CD44, OCT4, and ALDH1A1 by western blot” value is reported as “dramatic decrease”. In addition, in the assay on A549 cells [4], the “mRNA expression level of NANOG” value came out at 0.4 fold, the “mRNA expression level of OCT4” value came out at 0.5 fold and the “mRNA expression level of SOX2” value is given as 0.3 fold. Further, in assay [5], the “β-catenin level by immunofluorescence” value was “decrease in the fluorescence signal of β-catenin”.
Turning to `CC=C(C)C(=O)OCC1c2c(c(O)c(C)c3c2OCO3)CC2C3C4=C(CC(C(C#N)N12)N3C)C(=O)C(C)=C(OC)C4=O` (stereo not shown) [RT, Renieramycin T], the “colony formation inhibition rate” value with A549 cells [1] is listed as 72.58 ± 0.07%; in the assay on H292 cells it was 32.22 ± 0.05%; in the assay with H23 cells it was 58.75 ± 0.01%. For the same compound, in assay [5], the “β-catenin level by immunofluorescence” value was “unaltered level of β-catenin”.
